Source: EPA's ToxValDB 9.5
Values after ≈ are worked out from the molar mass of the structure shown.

Experiments:
[1] = test system: Rattus norvegicus
[2] = test system: Tagia sp.; settings: for NOEC: chronic/long-term, duration: 56 days
[3] = test system: Typhlodromus pyri; settings: not reported; mortality
[4] = test system: Aphidius rhopalosiphi; assay: LR50; higher = less toxic; settings: not reported; mortality
[5] = test system: Canidae; settings: for NOAEL: oral
[6] = test system: Homo sapiens; settings: clinical; oral; M; clinical signs
[7] = test system: Macaca mulatta; settings: chronic; duration: 1 years; oral; gavage; M/F; clinical signs
[8] = test system: Bibionidae; settings: chronic/long-term; duration: 28 days; other
[9] = test system: Daphnia magna; settings: chronic/long-term, duration: 21 days
[10] = test system: Equus caballus; settings: short-term; duration: 14 days; oral; feed; M/F; no effects
[11] = test system: Gallus gallus
[12] = test system: Oryctolagus sp.
[13] = test system: Pleurozium sp.; settings: acute; duration: 72 hours; growth
[14] = test system: Sinapis alba; settings: not reported; no effects
[15] = test system: Sus scrofa; settings: short-term; duration: 10 days; Not specified; no effects
[16] = test system: Triticum sp.; settings: not reported; no effects
[17] = test system: Vigna radiata var. radiata; settings: not reported; no effects
[18] = test system: Anas platyrhynchos
[19] = test system: Colinus virginianus
[20] = test system: Coturnix japonica; settings: acute; oral; mortality
[21] = test system: Aphidius rhopalosiphi; settings: not reported; mortality
[22] = test system: Oncorhynchus mykiss; settings: for LC50: acute, duration: 96 hours, mortality
[23] = test system: Typhlodromus pyri; assay: LR50; higher = less toxic; settings: not reported; mortality
[24] = test system: Anatidae; settings: subchronic; duration: 7 weeks; body weight
[25] = test system: Bovidae; settings: subchronic; duration: 30 days; oral; gavage; histopathology: neoplastic
[26] = test system: Ictalurus punctatus; settings: not reported; mortality
[27] = test system: Meleagris sp.
[28] = test system: Anser anser; settings: not reported; oral; feed; mortality
[29] = test system: Coturnix coturnix; settings: repeat dose other; food consumption
[30] = test system: Perdix sp.; settings: not reported; mortality
[31] = test system: Apis mellifera; settings: acute, mortality
[32] = test system: Neomysis kadiakensis; settings: acute; duration: 96 hours; mortality
[33] = test system: Chalcophaps sp.; settings: subchronic; oral; feed; clinical chemistry
[34] = subchronic, duration: 5 weeks, clinical signs

COP(=O)(OC)C(O)C(Cl)(Cl)Cl (stereo not drawn) [Trichlorfon]
LD50 ([1]; acute, oral, F, mortality): 212 mg/kg-day | NOAEL ([1]; chronic, oral, M): 13.2 mg/kg-day | LC50 ([2]; acute, duration: 14 days, mortality): 140 mg/kg | LEL [3]: 1200 g/ha | LR50 [4]: 0.519 g/ha

CC(CCc1ccc(O)cc1)NCC(O)c1ccc(O)cc1.Cl (stereo not drawn) [Ractopamine hydrochloride]
NOAEL ([5]; acute, M/F, Beagle, clinical signs): 0.002 mg/kg-day | NOEL [6]: 0.067 mg/kg-day | NOAEL [7]: 0.125 mg/kg-day

CCCCCCCCCCOc1cc2c(=O)c(C(=O)OCC)c[nH]c2cc1OCC [Decoquinate]
NOEC (subchronic, duration: 56 days, other): ≥ 9.2 mg/kg-day | NOEC [8]: 16.3 mg/kg | NOEL ([5]; subchronic, duration: 12 weeks, Beagle, behavior): 15 mg/kg-day | NOEC ([9]; no effects): 35.2 µg/L | LEL [10]: 6.25 mg/kg-day | LEL ([11]; short-term, duration: 21 days, no effects): ≤ 150 mg/L | LEL ([11]; subchronic, duration: 35 days, oral, diet, Chicken, no effects): 400 mg/kg-day | LEL ([11]; subchronic, duration: 42 days, oral, diet, no effects): 400 mg/kg-day | NOEL ([12]; developmental, duration: 11 days, oral, capsule, F, New Zealand, development): 60 mg/kg-day | NOAEL ([12]; reproduction developmental, F, mortality): 60 mg/kg-day | NOEC [13]: 73 µg/L | NOEL ([1]; developmental, duration: 11 days, oral, gavage, F, Sprague-Dawley, development): 100 mg/kg-day | NOEC [14]: ≤ 100 mg/kg | LEL [15]: 80 mg/kg-day | NOEC ([2]; no effects): > 1000 mg/kg | NOEC ([2]; reproduction): 1000 mg/kg | NOEC [16]: ≤ 100 mg/kg | NOEC [17]: ≤ 100 mg/kg

CNC(=O)Oc1cc(C)c(SC)c(C)c1 [Methiocarb]
LC50 ([18]; short-term, oral, feed, mortality): 1070 mg/kg | NOEC ([19]; reproduction developmental, reproduction): 4.51 mg/kg-day | LD50 [20]: 5 mg/kg

CC1=CC1 [1-Methylcyclopropene]
NOAEL (reproduction developmental): 22.4 mg/kg-day | LEL [21]: 10 mg/kg | NOAEL ([5]; subchronic, duration: 90 days, Dog Other, hematological): 22.4 mg/kg-day | LD50 ([19]; acute, oral, mortality): > 81 mg/kg-day | LC50 [22]: > 0.966 µg/mL | LC50 ([1]; acute, inhalation, mortality): > 2.5 µg/mL | LD50 ([1]; acute, oral, mortality): > 235 mg/kg-day | NOAEL ([1]; reproduction developmental): 543 mg/kg-day | NOAEL ([1]; reproduction developmental, inhalation): 6.5 mg/kg-day | NOAEL ([1]; reproduction developmental, oral, diet, body weight): 3.8 mg/kg-day | NOAEL ([1]; short-term, duration: 3 weeks, inhalation, M): 68 mg/kg-day | NOAEL ([1]; subchronic, duration: 90 days, inhalation, M, hematological): 9 mg/kg-day | LD50 ([2]; acute, mortality): > 4.41 ppm | LEL [3]: 10 mg/kg | LR50 [23]: > 10 ppm

CC(=O)OC[C@]12C[C@H](OC(=O)CC(C)C)C(C)=C[C@H]1O[C@H]1[C@H](O)[C@H](OC(C)=O)[C@@]2(C)[C@]12CO2 [T-2 toxin]
LOAEL [24]: 40 µg/kg-day | LOAEL [25]: 0.3 mg/kg-day | LOAEL ([11]; short-term, duration: 24 days, oral, diet, F, reproduction): 0.12 mg/kg-day | LOAEL [11, 34]: 0.04 mg/kg-day | NOAEL [26]: 13 µg/kg-day | LOAEL [27, 34]: 48 µg/kg-day | NOAEL ([12]; subchronic, oral, diet, F, clinical chemistry): 0.1 mg/kg-day

Br.O=C(C[C@H]1NCCC[C@@H]1O)Cn1cnc2cc(Br)c(Cl)cc2c1=O [Halofuginone hydrobromide]
LEL [28]: 3 mg/kg | LEL [29]: 3 mg/kg-day | LEL ([11]; subchronic, duration: 8 weeks, oral, diet, hematological): 6 mg/kg-day | LEL ([27]; chronic/long-term, duration: 20 weeks, oral, feed, body weight): 9 mg/kg | LEL ([12]; repeat dose other, food consumption): 3 mg/kg-day | NOEL ([12]; reproduction developmental, body weight): 0.03 mg/kg-day | LEL [30]: 3 mg/kg

O=[N+]([O-])/N=C1\NCCN1Cc1ccc(Cl)nc1 [Imidacloprid]
LD50 ([18]; acute, oral, unspecified): 66 mg/kg-day | LD50 ([31]; dermal): 0.081 µg/piece | NOEC ([31]; dermal): < 2.5 µg/piece | LD50 ([31]; duration: 48 hours, dermal): 0.081 µg/piece | LD50 ([31]; duration: 48 hours, oral, unspecified): 0.0037 µg/piece | LD50 ([31]; duration: 120 hours, dermal): 0.0251 µg/piece | LD50 ([31]; oral, unspecified): 0.0037 µg/piece | NOAEL ([5]; subchronic, duration: 90 days, Dog Other, clinical signs): 7.8 mg/kg-day | NOAEL ([19]; reproduction developmental): 9.3 mg/kg-day | NOEL ([19]; short-term, oral, diet): 29.4 mg/kg-day | NOEC ([9]; reproduction): 1800 µg/L | LC50 [32]: 0.0341 µg/mL (≈ 0.133 µM) | LC50 [22]: > 83 µg/mL | NOEC ([22]; chronic/long-term, duration: 91 days, time to hatch): 9.02 mg/L | LD50 ([1]; acute): 256 mg/kg-day | NOAEL ([1]; chronic): 17 mg/kg-day | NOAEL ([1]; chronic, duration: 2 years, M, histopathology: nonneoplastic): 5.7 mg/kg-day | NOAEL ([1]; subchronic, duration: 90 days, oral, histopathology: nonneoplastic): 9.3 mg/kg-day

Clc1ccc(C(c2ccc(Cl)cc2)C(Cl)(Cl)Cl)cc1 [DDT]
NOAEL ([18]; subchronic, mortality): 0.6 mg/kg-day | LEL [33]: 0.6 mg/kg-day
